Measured values published in ChEMBL document CHEMBL5505986, “Design, synthesis and biological evaluation of thiazolyl-halogenated pyrroles or pyrazoles as novel antibacterial and antibiofilm agents” (Eur J Med Chem, 2024).
In brackets after ≈: the same amount, converted by molar mass. Activity calls are given as the source filed them. No cut-off for these calls is given here.

Tests used:
Staphylococcus aureus [1] = assay: Antibiofilm activity against vancomycin-intermediate resistant Staphylococcus aureus ATCC 700699/Mu50 at sub-MIC doses measured after 24 hrs by crystal violet staining based analysis; type: functional
Acinetobacter baumannii = assay: Antibacterial activity against Acinetobacter baumannii ATCC 19606 assessed as reduction in bacterial growth incubated for 24 hrs by broth microdilution method; type: functional
Staphylococcus aureus [2] = assay: Antibiofilm activity against vancomycin-intermediate resistant Staphylococcus aureus ATCC 700699/Mu50 at 1/8 time MIC measured after 24 hrs by crystal violet staining based analysis; type: functional, organism-based
Pseudomonas aeruginosa [3] = assay: Antibiofilm activity against Pseudomonas aeruginosa ATCC 47085 at sub-MIC doses measured after 24 hrs by crystal violet staining based analysis; type: functional
Enterococcus faecium [4] = assay: Antibiofilm activity against Enterococcus faecium clinical isolate at 1/8 times MIC measured after 24 hrs by crystal violet staining based analysis; type: functional, organism-based
Staphylococcus aureus [5] = assay: Antibacterial activity against vancomycin-intermediate resistant Staphylococcus aureus ATCC 700699/Mu50 assessed as reduction in bacterial growth incubated for 24 hrs by broth microdilution method; type: functional
Streptococcus pyogenes [6] = assay: Antibacterial activity against Streptococcus pyogenes ATCC 12204 assessed as reduction in bacterial growth incubated for 24 hrs by broth microdilution method; type: functional
Pseudomonas aeruginosa [7] = assay: Antibacterial activity against Pseudomonas aeruginosa ATCC 47085 assessed as reduction in bacterial growth incubated for 24 hrs by broth microdilution method; type: functional
Enterococcus faecium [8] = assay: Antibacterial activity against clinical isolate Enterococcus faecium assessed as reduction in bacterial growth incubated for 24 hrs by broth microdilution method; type: functional
Pseudomonas aeruginosa [9] = assay: Antibiofilm activity against Pseudomonas aeruginosa ATCC 47085 at 8 to 16 ug/ml measured after 24 hrs by crystal violet staining based analysis; type: functional, organism-based; details: dose 8-16 µg/ml
Enterococcus faecium [10] = assay: Antibiofilm activity against Enterococcus faecium clinical isolate at sub-MIC doses measured after 24 hrs by crystal violet staining based analysis; type: functional
Klebsiella pneumoniae = assay: Antibacterial activity against Klebsiella pneumoniae ATCC 13883 assessed as reduction in bacterial growth incubated for 24 hrs by broth microdilution method; type: functional
NCI-H1975 = assay: Cytotoxicity against human NCI-H1975 cells measured after 72 hrs by SRB assay; type: functional, cell-based; details: NCI-H1975, 72 h
[11] = Toxicity in Galleria mellonella larvae assessed as reduction in animal survival […]; type: organism-based; details: in vivo, 80 h
NCI-H1299 = assay: Cytotoxicity against human NCI-H1299 cells measured after 72 hrs by SRB assay; type: functional, cell-based; details: NCI-H1299, 72 h
Enterococcus faecium [12] = assay: Antibacterial activity against Enterococcus faecium Efm-HS0649 assessed as reduction in bacterial growth incubated for 24 hrs by broth microdilution method; type: functional
Enterococcus faecium [13] = assay: Antibacterial activity against Enterococcus faecium Efm-HS06188 assessed as reduction in bacterial growth incubated for 24 hrs by broth microdilution method; type: functional
[14] = Metabolic stability in rat liver microsomes assessed as metabolic bioavailability at 0.1 uM preincubated for 10 mins followed by NADPH addition and measured upto 60 mins by LC-MS/MS analysis; type: ADME, Microsome; details: time < 70 min
[15] = Metabolic stability in dog liver microsomes assessed as metabolic bioavailability at 0.1 uM preincubated for 10 mins followed by NADPH addition and measured upto 60 mins by LC-MS/MS analysis; type: ADME, Canis lupus familiaris, Microsome; details: time < 70 min
Streptococcus pyogenes [16] = assay: Antibacterial activity against Streptococcus pyogenes infected in Galleria mellonella larvae infection model assessed as increase in number of surviving larvae at 1 mg/kg pre-infected with bacteria for 1 hr followed by compound addition measured every 12 hrs for 3 days; type: functional, organism-based; details: time 3.0 day
Enterococcus faecium [17] = assay: Antibacterial activity against glycopeptide-resistant Enterococcus faecium vanB type assessed as reduction in bacterial growth incubated for 24 hrs by broth microdilution method; type: functional
Streptococcus pyogenes [18] = assay: Antibacterial activity against Streptococcus pyogenes infected in Galleria mellonella larvae infection model assessed as prolongation of median survival time at 1 mg/kg pre-infected with bacteria for 1 hr followed by compound addition measured every 12 hrs for 3 days (reference value: 24 hrs); type: functional; details: time 3 day
[19] = Metabolic stability in human liver microsomes assessed as metabolic bioavailability at 0.1 uM preincubated for 10 mins followed by NADPH addition and measured upto 60 mins by LC-MS/MS analysis; type: ADME, Microsome; details: time < 70 min
[20] = Metabolic stability in monkey liver microsomes assessed as metabolic bioavailability at 0.1 uM preincubated for 10 mins followed by NADPH addition and measured upto 60 mins by LC-MS/MS analysis; type: ADME, Macaca mulatta, Microsome; details: rhesus monkey, time < 70 min
Staphylococcus aureus [21] = assay: Antibacterial activity against community associated methicillin-resistant Staphylococcus aureus USA300 assessed as reduction in bacterial growth incubated for 24 hrs by broth microdilution method; type: functional
[22] = Toxicity in Galleria mellonella larvae assessed as reduction in animal survival at 20 mg/kg; type: organism-based; details: in vivo, 80 h
Staphylococcus aureus [23] = assay: Antibacterial activity against community associated methicillin-resistant Staphylococcus aureus USA400 assessed as reduction in bacterial growth incubated for 24 hrs by broth microdilution method; type: functional
[24] = Metabolic stability in mouse liver microsomes assessed as metabolic bioavailability at 0.1 uM preincubated for 10 mins followed by NADPH addition and measured upto 60 mins by LC-MS/MS analysis; type: ADME, Microsome; details: time < 70 min

Compound | Activity (Staphylococcus aureus [1]) | Activity (Pseudomonas aeruginosa [3]) | MIC (Staphylococcus aureus [5]) | MIC (Streptococcus pyogenes [6]) | MIC (Enterococcus faecium [8]) | Activity (Enterococcus faecium [10]) | further results
O=[N+]([O-])c1cc(-c2nc(-c3cc(Br)cc(Br)c3O)cs2)[nH]n1 | >60% | >60% | 8 µg/mL (≈ 17.9 µM) | 2 µg/mL (≈ 4.48 µM) | 16 µg/mL (≈ 35.9 µM) | >60% | MIC (Acinetobacter baumannii): > 256 µg/mL; Activity (Staphylococcus aureus [2]): Active; Activity (Enterococcus faecium [4]): Active; MIC (Pseudomonas aeruginosa [7]): > 256 µg/mL; Activity (Pseudomonas aeruginosa [9]): Active; MIC (Klebsiella pneumoniae): > 256 µg/mL
O=C(c1cc(Cl)c(Cl)[nH]1)c1cc(Cl)cc(Cl)c1O | – | – | ≤ 0.125 µg/mL | ≤ 0.125 µg/mL | 0.5 µg/mL (≈ 1.54 µM) | – | IC50 (NCI-H1975): 0.59 µg/mL (≈ 1.82 µM); Activity [11]: Toxic; IC50 (NCI-H1299): 0.82 µg/mL (≈ 2.52 µM)
Oc1c(Cl)cc(Cl)cc1-c1csc(-c2cc(C(F)(F)F)n[nH]2)n1 | >60% | >60% | 4 µg/mL (≈ 10.5 µM) | 4 µg/mL (≈ 10.5 µM) | 4 µg/mL (≈ 10.5 µM) | >60% | MIC (Acinetobacter baumannii): > 256 µg/mL; Activity (Staphylococcus aureus [2]): Active; Activity (Enterococcus faecium [4]): Active; MIC (Pseudomonas aeruginosa [7]): > 256 µg/mL; Activity (Pseudomonas aeruginosa [9]): Active; MIC (Klebsiella pneumoniae): > 256 µg/mL
Oc1c(Br)cc(Br)cc1-c1csc(-c2cc(Cl)c(Cl)[nH]2)n1 | – | – | > 256 µg/mL | > 256 µg/mL | > 256 µg/mL | – | –
COc1c(Cl)cc(Cl)cc1-c1csc(-c2[nH]c(Br)c(Br)c2Br)n1 | – | – | > 256 µg/mL | > 256 µg/mL | > 256 µg/mL | – | –
O=[N+]([O-])c1cc(-c2nc(-c3cc(Cl)cc(Cl)c3O)cs2)[nH]n1 | – | – | 128 µg/mL (≈ 358 µM) | 8 µg/mL (≈ 22.4 µM) | > 256 µg/mL | – | –
CN[C@H](CC(C)C)C(=O)N[C@H]1C(=O)N[C@@H](CC(N)=O)C(=O)N[C@H]2C(=O)N[C@H]3C(=O)N[C@H](C(=O)N[C@H](C(=O)O)c4cc(O)cc(O)c4-c4cc3ccc4O)[C@H](O)c3ccc(c(Cl)c3)Oc3cc2cc(c3O[C@@H]2O[C@H](CO)[C@@H](O)[C@H](O)[C@H]2O[C@H]2C[C@](C)(N)[C@H](O)[C@H](C)O2)Oc2ccc(cc2Cl)[C@H]1O [VANCOMYCIN] | inactive | inactive | 8 µg/mL (≈ 5.52 µM) | 0.25 µg/mL (≈ 0.173 µM) | 16 µg/mL (≈ 11 µM) | inactive | MIC (Enterococcus faecium [12]): > 256 µg/mL; MIC (Enterococcus faecium [13]): > 256 µg/mL
FC(F)(F)c1cc(Br)cc(-c2csc(-c3[nH]c(Br)c(Br)c3Br)n2)c1 | – | – | 16 µg/mL (≈ 26.2 µM) | 16 µg/mL (≈ 26.2 µM) | 32 µg/mL (≈ 52.5 µM) | – | –
O=[N+]([O-])c1ccc(O)c(-c2csc(-c3cc(Cl)c(Cl)[nH]3)n2)c1 | – | – | > 256 µg/mL | 32 µg/mL (≈ 89.8 µM) | > 256 µg/mL | – | –
Oc1ccc(C(F)(F)F)cc1-c1csc(-c2cc(Cl)c(Cl)[nH]2)n1 | – | – | 4 µg/mL (≈ 10.5 µM) | 4 µg/mL (≈ 10.5 µM) | > 256 µg/mL | – | –
Cc1cc(Cl)c(O)c(-c2csc(-c3cc(Cl)c(Cl)[nH]3)n2)c1 | – | – | > 256 µg/mL | > 256 µg/mL | > 256 µg/mL | – | –
Oc1c(Br)cc(C(F)(F)F)cc1-c1csc(-c2[nH]c(Br)c(Br)c2Br)n1 | >60% | >60% | 2 µg/mL (≈ 3.2 µM) | ≤ 0.125 µg/mL | ≤ 0.125 µg/mL | >60% | Fh at 1 h, 0.1 µM [14]: 65.7%; Fh at 1 h, 0.1 µM [15]: 18.4%; MIC (Acinetobacter baumannii): > 256 µg/mL; Activity (Streptococcus pyogenes [16]): Active; IC50 (NCI-H1975): 4.4 µg/mL (≈ 7.03 µM); Activity (Staphylococcus aureus [2]): Active; MIC (Enterococcus faecium [17]): 0.5 µg/mL (≈ 0.799 µM); MST (Streptococcus pyogenes [18]): 36 h; Fh at 1 h, 0.1 µM [19]: 2.26%; Fh at 1 h, 0.1 µM [20]: 36.9%; MIC (Staphylococcus aureus [21]): 16 µg/mL (≈ 25.6 µM); IC50 (NCI-H1299): 8.25 µg/mL (≈ 13.2 µM); MIC (Pseudomonas aeruginosa [7]): > 256 µg/mL; Activity [22]: Non-Toxic; MIC (Enterococcus faecium [12]): ≤ 0.125 µg/mL; MIC (Staphylococcus aureus [23]): 16 µg/mL (≈ 25.6 µM); Activity (Pseudomonas aeruginosa [9]): Active; MIC (Klebsiella pneumoniae): > 256 µg/mL; Fh at 1 h, 0.1 µM [24]: 43.3%; MIC (Enterococcus faecium [13]): ≤ 0.125 µg/mL
Oc1ccccc1-c1csc(-c2cc(Cl)c(Cl)[nH]2)n1 | – | – | > 256 µg/mL | > 256 µg/mL | > 256 µg/mL | – | –
